Results on 17 compounds are retold here after PubChem BioAssay (NCI).

Common to all, as to assay: NCI anticancer screen, dose series, 48 h
The test system of assay [1] is KM12 colon.
The test system of assay [2] is SK-OV-3 ovarian.
Assay [3] concerns OVCAR-5 ovarian.
Assay [4] relates to MDA-MB-435.
Assay [5] deals with TK-10 renal.
For assay [6], the system named is HL-60(TB) leukemia.
Assay [7] concerns SF-539 CNS.
For assay [8], the system named is NCI-H522 lung.
Assay [9] has as its system SK-MEL-28 melanoma.
The test system of assay [10] is SW-620 colon.

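Briefly, cells in 96-well plates were exposed to five compound concentrations for 48 h, and endpoints were estimated by linear interpolation. The concentration for 50% growth inhibition is given as GI50. TGI: total growth inhibition.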

In the case of `CC1CCN(CCCCCOc2ccc3oc4cc(Cl)ccc4c(=O)c3c2)CC1`, the GI50 in [1] was 6.26 µM; in assay [2], 8.45 µM; in [3], 6.63 µM; in assay [4] it was 1.55 µM; in assay [5], 7.46 µM; in assay [6] it was 2.81 µM. The GI50 in assay [7] was 5.9 µM; in assay [8], 9.09 µM; in [9], 7.07 µM; in assay [10], 6.16 µM. For the same compound, the TGI in assay [1] was 14.4 µM; in assay [2] it was 15.8 µM; in assay [3] it was 13.5 µM; in [4], 5.23 µM; in assay [5], 14.8 µM; in assay [6] it was 10.5 µM. Also, the TGI was 12.3 µM in assay [7], 18 µM in assay [8], 13.7 µM in assay [9] and 13.3 µM in assay [10].

As to `O=c1c2ccccc2n2n1CC(O)C2` (stereo unspecified), the TGI in assay [1], in assay [2], in assay [3], in assay [4], in [5] and in assay [6] was greater than 100 µM in each case. The TGI in assay [7], in assay [8], in assay [9] and in [10] was greater than 100 µM in each case. In addition, the GI50 in assay [4] is greater than 100 µM.

As for `O=C1c2ccccc2C(=Cc2ccccc2)c2ccccc21`, the GI50 is 1.8 µM in assay [1]; 2.54 µM in assay [2]; 5.04 µM in assay [3]; 0.31 µM in assay [4]; 3.03 µM in assay [5]; 2.72 µM in assay [6]. In addition, the GI50 in [7] is 3.57 µM; in assay [8] it was 1.55 µM; in assay [9], 4.23 µM; in [10], 2.43 µM. Besides, the TGI in [1] amounted to 9.81 µM; in [2], 9.05 µM; in assay [3], 16.9 µM; in assay [4], 11.9 µM; in assay [5] it was 10.1 µM; in assay [6], 62.8 µM. For the same compound, the TGI was determined as 11.9 µM in [7], 5.63 µM in assay [8], 17.4 µM in assay [9] and 13.8 µM in [10].

On to `COC(=O)[C@]12CC[C@@H](C)[C@H](C)[C@@H]1C1=CC[C@@H]3[C@@]4(C)C(C=O)=C[C@@](C)(COC(=O)c5ccco5)[C@@H]4C(=O)C[C@@]3(C)[C@]1(C)CC2`, for which the GI50 in [1] is 4.26 µM; in assay [2] it was 43.1 µM; in assay [3] it was 68.8 µM; in assay [4], 0.193 µM; in assay [5], 11.7 µM; in assay [6] it was 3.58 µM. Also, the GI50 in assay [7] was 23 µM; in assay [8], 7.63 µM; in assay [9] it was 0.0524 µM; in assay [10] it was 4.9 µM. Also, the TGI is greater than 100 µM in assay [1]; greater than 100 µM in assay [2]; greater than 100 µM in assay [3]; 4.33 µM in assay [4]; greater than 100 µM in assay [5]; 15.4 µM in assay [6]. For the same compound, the TGI in assay [7], in [8], in [9] and in assay [10] was greater than 100 µM each time.

For the compound `CCOC(=O)/C=C/c1cc2cc(-c3csc4ccccc34)ccc2[nH]1`, the GI50 in assay [1] was 2.67 µM; in assay [2] it was 15.2 µM; in assay [3], 21.6 µM; in assay [4] it was 1.91 µM; in assay [5], 14.4 µM; in [6] it was 2.43 µM. Moreover, the GI50 was 14 µM in [7], 4.19 µM in assay [8], 10.1 µM in assay [9] and 3.54 µM in assay [10]. The TGI in assay [1] worked out at 7.93 µM; in assay [2] it was 28.7 µM; in [3] it was 42.6 µM; in assay [4], 4.73 µM; in [5], 29 µM; in assay [6], 6.57 µM. Moreover, the TGI in assay [7] came to 27.1 µM; in assay [8] it was 17 µM; in [9], 21.6 µM; in [10], 14.1 µM.

As for `Cn1nnnc1N/N=C/c1ccccc1`, the TGI in assay [1], in assay [2], in assay [3], in assay [4], in assay [5] and in [6] was greater than 10 µM in each case. The TGI in assay [7], in assay [8], in [9] and in assay [10] was greater than 10 µM throughout.

With `O=C(Nc1ccc(CN2CCOCC2)cc1)c1[nH]ncc1Nc1ncnc2sccc12`, the GI50 in assay [1] was 0.311 µM; in assay [2], 0.103 µM; in assay [3] it was 0.904 µM; in [4] it was 0.525 µM; in assay [5], 1.64 µM; in [6], 0.249 µM. The GI50 is 0.141 µM in assay [7], 0.413 µM in [8], 0.629 µM in assay [9] and 0.418 µM in assay [10]. Further, the TGI was 10.1 µM in assay [1]; greater than 100 µM in assay [2]; greater than 100 µM in assay [3]; 11.7 µM in assay [4]; greater than 100 µM in assay [5]; 0.72 µM in [6]. Also, the TGI in [7] is 1.15 µM; in [8], 4.17 µM; in [9], 16.8 µM; in assay [10] it was greater than 100 µM.

For the compound `Cc1noc(C)c1-c1cc(O)cc(C(O)c2ccccc2)c1` (stereo unspecified), the GI50 in assay [1] was 8.2 µM; in assay [2], 7.01 µM; in assay [3], 31.8 µM; in assay [4] it was 3.48 µM; in [5], 3.99 µM; in assay [6] it was 2.17 µM. For the same compound, the GI50 in assay [7] is 4.56 µM; in assay [8], 27 µM; in [9] it was 9.15 µM; in assay [10], 24.6 µM. The TGI in assay [1] is greater than 100 µM; in [2] it was greater than 100 µM; in [3] it was greater than 100 µM; in assay [4], greater than 100 µM; in assay [5], greater than 100 µM; in assay [6] it was 22.7 µM. Besides, the TGI in [7], in assay [8], in assay [9] and in [10] was greater than 100 µM each time.

`O=C(Nc1ccc(Cl)cc1F)c1cc(I)ccc1O`: the GI50 in [1] was 2.15 µM; in assay [2], 0.132 µM; in [3], 4.21 µM; in assay [4], 2.08 µM; in [5] it was 4.21 µM; in [6], 1.66 µM. Besides, the GI50 was 1.1 µM in assay [7], 1.14 µM in assay [8], 0.487 µM in assay [9] and 2.44 µM in assay [10]. The TGI was 4.98 µM in [1]; 1.24 µM in [2]; greater than 100 µM in [3]; 7.9 µM in [4]; 16.1 µM in assay [5]; 6.87 µM in [6]. Moreover, the TGI in [7] stood at 5.78 µM; in assay [8], 10.5 µM; in assay [9], 3.38 µM; in assay [10] it was 13.6 µM.

For the compound `CN(C)c1ccc(/C=C2\N=C(c3ccc([N+](=O)[O-])cc3)OC2=O)cc1`, the TGI in [1] is greater than 100 µM; in [2], greater than 100 µM; in assay [3], greater than 100 µM; in assay [4], greater than 100 µM; in [5], greater than 100 µM; in assay [6], 87.9 µM. Further, the TGI in assay [7], in assay [8], in assay [9] and in assay [10] was greater than 100 µM throughout.

Take `O=C(CN1CCN(c2ccc(Cl)cc2)CC1)N1CCN(c2nnc(-c3ccc(Cl)cc3)c(-c3ccc(Cl)cc3)n2)CC1`: the GI50 in assay [1] was 9.45 µM; in [2], 33.9 µM; in assay [3] it was greater than 100 µM; in [4], 50.9 µM; in assay [5], 26.2 µM; in assay [6], greater than 100 µM. The GI50 in assay [7] is 19.6 µM; in assay [8], 18.2 µM; in assay [9], greater than 100 µM; in assay [10], greater than 100 µM. For the same compound, the TGI in [1], in assay [2], in [3], in [4], in [5] and in assay [6] was greater than 100 µM throughout. In addition, the TGI in assay [7] is 69.9 µM; in assay [8], 46.9 µM; in assay [9], greater than 100 µM; in assay [10] it was greater than 100 µM.

On to `C=CC(C)(O)/C=C/C=C(\C)C(CC1OC1(C)C)OC(=O)/C(C)=C\C` (stereo unspecified), for which the TGI in assay [1], in [2], in [3], in assay [4], in [5] and in assay [6] was greater than 100 µM each time. Also, the TGI in [7], in assay [8], in assay [9] and in [10] was greater than 100 µM in each case.

For the compound `COc1ccc2nc3cc(Cl)ccc3c(N3CCN(c4ccnc(N5CCOCC5)n4)CC3)c2c1`, the GI50 in [1] was 19.3 µM; in assay [2] it was greater than 100 µM; in [3] it was 7.58 µM; in [4] it was 7.15 µM; in [5], 42.5 µM; in assay [6], 8.12 µM. The GI50 was greater than 100 µM in assay [7], 1.81 µM in [8], 58.4 µM in [9] and 4.71 µM in assay [10]. Moreover, the TGI in [1], in [2], in assay [3], in assay [4], in [5] and in assay [6] was greater than 100 µM throughout. The TGI in assay [7] is greater than 100 µM; in assay [8] it was 5.09 µM; in assay [9], greater than 100 µM; in assay [10], greater than 100 µM.

In the case of `O=C(CCCN1CCOCC1)Nc1ccc(Cn2nnc3c2C(=O)c2nnn(Cc4ccc(NC(=O)CCCN5CCOCC5)cc4)c2C3=O)cc1`, the GI50 in assay [1] was 6.99 µM; in [2] it was greater than 100 µM; in [3], greater than 100 µM; in [4], 1.65 µM; in assay [5], greater than 100 µM; in assay [6], 1.51 µM. Further, the GI50 was 2.17 µM in assay [7], 1.38 µM in assay [8], 3.93 µM in assay [9] and 2.85 µM in assay [10]. The TGI is greater than 100 µM in [1]; greater than 100 µM in assay [2]; greater than 100 µM in assay [3]; 3.08 µM in [4]; greater than 100 µM in assay [5]; 4.91 µM in assay [6]. For the same compound, the TGI is 4.71 µM in assay [7], 3.59 µM in assay [8], greater than 100 µM in assay [9] and greater than 100 µM in assay [10].

Take `CCN1C(NN)=NS(=O)(=O)c2ccccc21`: the TGI in assay [1], in assay [2], in [3], in assay [4], in [5] and in assay [6] was greater than 100 µM throughout. The TGI in assay [7], in assay [8], in assay [9] and in [10] was greater than 100 µM throughout.

As for `CO/N=C(\C)c1cccc(Nc2cc(-c3ccccc3)nc3c(O)cccc23)c1`, the GI50 is 3.92 µM in assay [1]; 8.62 µM in [2]; 20.3 µM in assay [3]; 1.97 µM in assay [4]; 6.89 µM in assay [5]; 23 µM in [6]. Also, the GI50 is 10.8 µM in assay [7], 2.78 µM in assay [8], 12.4 µM in assay [9] and 4.5 µM in assay [10]. In addition, the TGI in assay [1] was 19.1 µM; in [2], 34.5 µM; in assay [3], 60.7 µM; in assay [4], 5.56 µM; in assay [5], 22.8 µM; in assay [6] it was greater than 100 µM. Moreover, the TGI in assay [7] worked out at 39.9 µM; in [8], 6.95 µM; in [9], 43.5 µM; in assay [10], 19.6 µM.

`O=C(CF)N(O)c1ccc(/C=C/c2ccccc2)cc1`: the GI50 in [1] is 16.5 µM; in [2], 7.53 µM; in assay [3], 8.26 µM; in assay [4] it was 8.48 µM; in [5], 3.38 µM; in assay [6], 0.605 µM. Besides, the GI50 in assay [7] was 8.17 µM; in [8], 12.8 µM; in assay [9], greater than 40.4 µM; in assay [10], 1.3 µM. The TGI in assay [1] is greater than 100 µM; in [2], 32.1 µM; in assay [3] it was greater than 100 µM; in assay [4], greater than 100 µM; in assay [5], 27.5 µM; in assay [6], 13.6 µM. In addition, the TGI in assay [7] was 52.9 µM; in assay [8] it was greater than 100 µM; in assay [9], greater than 100 µM; in assay [10], greater than 100 µM.
